We go through 19 molecules from patent publication US20240025919A1, “AZA-TETRACYCLIC OXAZEPINE COMPOUNDS AND USES THEREOF” (Genentech, Inc., priority 2022, published 2024).

SMILES strings stand for the structures. Like-named read-outs stand apart in the source and are kept apart here.

A word on the IC50: it is the concentration that gives 50% inhibition.

The target of assay [1] is T1, KRAS WT (Homo sapiens (Human), UniProt P01116). As to the kind of experiment: KRAS WT Biochemical Assay, BODIPY-GDP Exchange TR-FRET (Example 502; 0.06 nM KRAS WT, 15 nM GDP, 300 nM SOS1, 120-minute incubation). To be noted: read-out: KRas HTRF IC50. The gist of the method:
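IC50 from a 4-parameter Hill fit of percent inhibition, itself the TR-FRET 520/490 nm ratio scaled between DMSO and a fully inhibiting control. Reaction: 300 nM SOS1 and 300 nM BODIPY-GDP added to preformed 0.06 nM KRAS WT/15 nM GDP/Tb-streptavidin complex; 120 min incubation; pH 7.5 HEPES, MgCl2, DTT.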
(TR-FRET usually uses a lanthanide donor and a delayed reading to cut background.)

Assay [2] deals with H1975 (KRAS wild type human lung adenocarcinoma cell line). As to the kind of experiment: KRAS 3D-Cell Proliferation Assay, H1975 (CellTiter-Glo 3D, 7 days). The assay is classed as cell-based. To be noted: H1975 3D culture, read-out: Prolif H1975 3D ATP IC50. As for the experimental part: (§1) Example 503: KRAS 3D-Cell Proliferation Assays. Cellular potencies of compounds are assessed by evaluating inhibition of proliferation in 3D cultures of homozygous mutant KRAS G12D human pancreatic cell lines (AsPC-1 and HPAC) as compared to a KRAS wild type human lung adenocarcinoma cell line (PC-9 and/or H1975). Cells are seeded into 384-well black round-bottom, ultra-low attachment assay plates in 50 uL cell growth medium (RPMI-1640 with 10% fetal bovine serum and 2 mM L-glutamine). After overnight incubation at 37° C. and 5% CO2, compounds solubilized in DMSO are added as dilution series to the wells in a total volume of 150 nL (0.3% DMSO final). The cells are incubated for 7 days at 37° C. and 5% CO2. Cell proliferation is quantitated by addition of 40 uL/well of CellTiter-GloO 3D (Promega), and the well contents are mixed 20× at high speed using liquid handling automation workstation (Bravo with 384-well head) and centrifuged at 1500 rpm for 2 minutes to eliminate bubbles. This reagent in combination with mechanical disruption releases the cellular ATP to promote activity in a luciferase-based enzyme/substrate chemiluminescent detection system. After a 30-minute incubation under ambient conditions with shaking and an additional 10 minutes without shaking, the luminescence is read on a plate reader (e.g. EnVision [PerkinElmer]). The results are normalized to percent inhibition based on the following control samples: DMSO (0% inhibition) and 1 uM staurosporine (100% inhibition). The normalized luminescence results are plotted against compound concentration, and the data are fit to a 4-parameter Hill equation to determine the IC50 values.

Another assay has as its target KRAS G12D (Homo sapiens (Human), UniProt P01116, G12D). As to the kind of experiment: KRAS G12D LoEnz Biochemical Assay, BODIPY-GDP Exchange TR-FRET (SOS1-mediated nucleotide exchange). To be noted: read-out: KRas (G12D) GDP HTRF IC50.
Assay [3] relates to HPAC (homozygous mutant KRAS G12D human pancreatic cell line). The experiment in a line: KRAS 3D-Cell Proliferation Assay, HPAC (CellTiter-Glo 3D, 7 days). The assay is classed as cell-based. To be noted: HPAC 3D culture, read-out: Prolif HPAC 3D ATP IC50. The protocol:
as §1
A general note: ATP-based viability assays read luminescence as a measure of living cells.

Assay [4] deals with T1, KRAS WT. As to the kind of experiment: KRAS WT Biochemical Assay, BODIPY-GDP Exchange TR-FRET (Example 501; 3 nM KRAS WT, 3 nM SOS1, 60-minute incubation). To be noted: read-out: KRas HTRF IC50. The method, boiled down:
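SOS1-mediated exchange assay: 3 nM biotin-KRAS WT with terbium-streptavidin, started with 3 nM SOS1 and 300 nM BODIPY-GDP, HEPES pH 7.5 with MgCl2. TR-FRET (520/490 nm) read after 60 min; normalized to DMSO and full-inhibition control, IC50 from 4-parameter Hill fit.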

KRAS G12D, sequence (P01116-2 other isoform, or with tags, fused parts or gaps G12D): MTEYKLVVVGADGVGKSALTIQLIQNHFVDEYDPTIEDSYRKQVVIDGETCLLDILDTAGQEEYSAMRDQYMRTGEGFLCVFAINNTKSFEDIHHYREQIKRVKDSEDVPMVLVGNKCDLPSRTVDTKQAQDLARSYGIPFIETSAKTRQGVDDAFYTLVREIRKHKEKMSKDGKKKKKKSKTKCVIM
T1 sequence (P01116-2 other isoform, or with tags, fused parts or gaps): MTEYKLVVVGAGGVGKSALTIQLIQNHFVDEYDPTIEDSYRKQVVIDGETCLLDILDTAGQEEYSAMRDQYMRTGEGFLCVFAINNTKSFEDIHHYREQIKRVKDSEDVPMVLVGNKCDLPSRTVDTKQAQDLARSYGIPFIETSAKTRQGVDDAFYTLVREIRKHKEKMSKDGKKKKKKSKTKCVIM

For the molecule `Cc1c(F)c(N)cc(-c2nc3c4c(nc(OC[C@@H]5C[C@H]6COCCN65)nc4c2F)N2C[C@H]4CC[C@H](N4)[C@H]2[C@H](C)O3)c1C(F)(F)F` (single isomer, unassigned) [159 (diast. 2)], the IC50 amounted to 48.1 nM at KRAS WT [1]; 1240 nM in assay [2] (Homo sapiens, NCI-H1975, 168 h); 0.23 nM at KRAS G12D; 23.8 nM in assay [3] (Homo sapiens, HPAC, 168 h).

Take `Cc1c(F)c(N)cc(-c2nc3c4c(nc(OCC56CCCN5CCN(C)C6=O)nc4c2F)N2C[C@H]4CC[C@H](N4)[C@H]2[C@H](C)O3)c1C(F)(F)F` (single isomer, unassigned) [137 (isomer 2)]: the 50% inhibitory concentration (IC50) on KRAS WT [1] stood at 454 nM; in assay [2] (Homo sapiens, NCI-H1975, 168 h), 20000 nM; on KRAS G12D, 2.34 nM; in assay [3] (Homo sapiens, HPAC, 168 h), 193 nM.

Take `Cc1c(F)c(N)cc(-c2nc3c4c(nc(OC[C@@H]5C[C@@H]6C[N@@]5CCO6)nc4c2F)N2C[C@H]4CC[C@H](N4)[C@H]2[C@H](C)O3)c1C(F)(F)F` (single isomer, unassigned) [151 (isomer 1)]: the 50% inhibitory concentration (IC50) was found to be 398 nM at KRAS WT [1]; 20000 nM in assay [2] (Homo sapiens, NCI-H1975, 168 h); 1.84 nM on KRAS G12D; 323 nM in assay [3] (Homo sapiens, HPAC, 168 h).

Consider `Cc1c(F)c(N)cc(-c2nc3c4c(nc(OC[C@@]56CCCN5CC5(CC5(F)F)C6)nc4c2F)N2C[C@H]4CC[C@H](N4)[C@H]2[C@@H](C)O3)c1C(F)(F)F` (stereo partly drawn) [compound 63], for which the half-inhibitory concentration (IC50) at KRAS WT [1] is 21.7 nM; in assay [2], 20800 nM; at KRAS G12D, 0.15 nM; in assay [3] it was 82.4 nM.

For the molecule `Cc1c(F)c(N)cc(-c2nc3c4c(nc(OCC5CCC6CC(F)(F)CN56)nc4c2F)N2C[C@H]4CC[C@H](N4)[C@H]2[C@H](C)O3)c1C(F)(F)F` (single isomer, unassigned) [153 (isomer 3)], the IC50 on KRAS WT [1] is 125 nM; in assay [2], 4490 nM; at KRAS G12D it was 0.55 nM; in assay [3], 32.9 nM.

Turning to `Cc1c(F)c(N)cc(-c2nc3c4c(nc(OC[C@]5(CN6C[C@H]7C[C@@H]6CO7)CC5(F)F)nc4c2F)N2C[C@H]4CC[C@H](N4)[C@H]2[C@H](C)O3)c1C(F)(F)F` (single isomer, unassigned) [166 a], the concentration for half-maximal inhibition (IC50) on KRAS WT [1] turned out to be 3.68 nM; in assay [2], 1270 nM; on KRAS G12D, 0.1 nM; in assay [3] (Homo sapiens, HPAC, 168 h), 1.44 nM.

For the molecule `Cc1c(F)c(N)cc(-c2nc3c4c(nc(OCC5CCC6CC(F)(F)CN56)nc4c2F)N2C[C@H]4CC[C@H](N4)[C@H]2[C@H](C)O3)c1C(F)(F)F` (single isomer, unassigned) [153 (isomer 1)], the IC50 was 90.9 nM at KRAS WT [1]; 4740 nM in assay [2] (Homo sapiens, NCI-H1975, 168 h); 0.37 nM on KRAS G12D; 19 nM in assay [3].

`Cc1c(F)c(N)cc(-c2nc3c4c(nc(OC[C@@]56CCCN5[C@@H](C(F)F)CC6)nc4c2F)N2C[C@H]4CC[C@H](N4)[C@H]2[C@H](C)O3)c1C(F)(F)F` (single isomer, unassigned) [130 (isomer 1)]: the IC50 on KRAS WT [1] was 460 nM; in assay [2] (Homo sapiens, NCI-H1975, 168 h), 2830 nM; on KRAS G12D, 2.26 nM; in assay [3], 44.7 nM.

For `Cc1c(F)c(N)cc(-c2nc3c4c(nc(OC[C@H]5CC[C@@H]6CN(C)C(=O)CN56)nc4c2F)N2C[C@H]4CC[C@H](N4)[C@H]2[C@H](C)O3)c1C(F)(F)F` (single isomer, unassigned) [131 (isomer 1)], the IC50 at KRAS WT [1] turned out to be 2530 nM; in assay [2] it was 20000 nM; at KRAS G12D, 13.9 nM; in assay [3], 1430 nM.

As to `Cc1c(F)c(N)cc(-c2nc3c4c(nc(OC[C@H]5CC[C@@H]6CN(C)C(=O)CN56)nc4c2F)N2C[C@H]4CC[C@H](N4)[C@H]2[C@H](C)O3)c1C(F)(F)F` (single isomer, unassigned) [131 (isomer 2)], the IC50 on KRAS WT [1] is 293 nM; in assay [2], 20000 nM; at KRAS G12D it was 1.31 nM; in assay [3], 342 nM.

With `Cc1c(F)c(N)cc(-c2nc3c4c(nc(OC[C@@]56CCC[C@@H]5N(C)CCC6)nc4c2F)N2C[C@H]4CC[C@H](N4)[C@H]2[C@H](C)O3)c1C(F)(F)F` (single isomer, unassigned) [126 (isomer 2)], the IC50 on KRAS WT [1] stood at 8.08 nM; in assay [2] (Homo sapiens, NCI-H1975, 168 h), 1770 nM; on KRAS G12D, 0.09 nM; in assay [3] (Homo sapiens, HPAC, 168 h), 5.15 nM.

`Cc1c(F)c(N)cc(-c2nc3c4c(nc(OC[C@@H]5COC[C@H]6CCCN65)nc4c2F)N2C[C@H]4CC[C@H](N4)[C@H]2[C@H](C)O3)c1C(F)(F)F` (single isomer, unassigned) [121 (isomer 2)]: the half-maximal inhibitory concentration (IC50) at KRAS WT [1] was 49.3 nM; in assay [2] (Homo sapiens, NCI-H1975, 168 h), 533 nM; at KRAS G12D, 0.27 nM; in assay [3] (Homo sapiens, HPAC, 168 h), 17.5 nM.

As to `Cc1cc(N)c(F)c(-c2nc3c4c(ncnc4c2Cl)N2C[C@H]4CC[C@H](N4)[C@H]2[C@H](C)O3)c1C(F)(F)F` [Compound 93, 3-((5S,5aS,6S,9R)-1-chloro-5-methyl-5a,6,7,8,9,10-hexahydro-5H-4-oxa-3,10a,11,13,14-pentaaza-6,9-methanonaphtho[1,8-ab]heptalen-2-yl)-2-fluoro-5-methyl-4-(trifluoromethyl)aniline], the IC50 on KRAS WT [1] turned out to be 14400 nM; in assay [2] (Homo sapiens, NCI-H1975, 168 h), 20000 nM; on KRAS G12D it was 73.4 nM; in assay [3] (Homo sapiens, HPAC, 168 h), 836 nM.

Consider `Cc1c(F)c(N)cc(-c2nc3c4c(nc(OC[C@@]56CCN5CC(F)(F)C6)nc4c2F)N2C[C@H]4CC[C@H](N4)[C@H]2[C@H](C(F)(F)F)O3)c1C(F)(F)F` (single isomer, unassigned) [263 (diast. 1)], for which the IC50 at KRAS WT [4] is 5.49 nM; in assay [2] (Homo sapiens, NCI-H1975, 168 h) it was 789 nM; on KRAS G12D, 0.26 nM; in assay [3] (Homo sapiens, HPAC, 168 h), 6.14 nM.

For `Cc1nc(N)cc(-c2nc3c4c(nc(OC[C@H]5N(C)C[C@]56CC6(F)F)nc4c2F)N2C[C@H]4CC[C@H](N4)[C@H]2[C@H](C(F)(F)F)O3)c1C(F)(F)F` (single isomer, unassigned) [262 (isomer 1)], the half-inhibitory concentration (IC50) on KRAS WT [4] was found to be 668 nM; in assay [2] (Homo sapiens, NCI-H1975, 168 h), 20000 nM; at KRAS G12D, 31.9 nM; in assay [3] (Homo sapiens, HPAC, 168 h) it was 475 nM.

As for `Cc1cc(N)c(Cl)c(-c2nc3c4c(nc(OC[C@@]56CCCN5C[C@H](F)C6)nc4c2Cl)N2C[C@H]4CC[C@H](N4)[C@H]2[C@H](C)O3)c1C(F)(F)F` (single isomer, unassigned) [Compound 240 (atrop. 1)], the IC50 was 1080 nM at KRAS WT [4], 6480 nM in assay [2], 44.9 nM at KRAS G12D and 594 nM in assay [3].

Regarding `CC(c1cc(F)c(N)cc1-c1nc2c3c(nc(OC[C@@]45CCCN4C[C@H](F)C5)nc3c1F)N1C[C@H]3CC[C@H](N3)[C@H]1[C@H](C)O2)C(F)F` (single isomer, unassigned) [181 (isomer 2)], the IC50 turned out to be 3030 nM at KRAS WT [4]; 7260 nM in assay [2] (Homo sapiens, NCI-H1975, 168 h); 50.4 nM at KRAS G12D; 903 nM in assay [3] (Homo sapiens, HPAC, 168 h).

Take `Cc1cc(N)c(Cl)c(-c2nc3c4c(nc(OC[C@@]56CCCN5C[C@H](F)C6)nc4c2Cl)N2C[C@H]4CC[C@H](N4)[C@H]2[C@H](C)O3)c1C(F)(F)F` (single isomer, unassigned) [Compound 240 (atrop. 2)]: the half-maximal inhibitory concentration (IC50) at KRAS WT [4] is 15.1 nM; in assay [2] it was 1060 nM; on KRAS G12D it was 0.14 nM; in assay [3], 1.88 nM.

On to `Cc1cc(N)c(F)c(-c2nc3c4c(ncnc4c2Cl)N2C[C@H]4CC[C@H](N4)[C@H]2[C@H](C)O3)c1C(F)(F)F` (single isomer, unassigned) [Compound 95], for which the half-inhibitory concentration (IC50) at KRAS WT [1] was 3570 nM; in assay [2], 6700 nM; in assay [3], 247 nM.
